The record followed here is patent US11787785B2 (NOVARTIS AG, priority 2021, dated 2023).

Structures are written as SMILES. A value given as a limit tells only on which side of the number the result lay.

The assay concerns the target T1, WIZ protein (HiBit-WIZ fusion protein) (Homo sapiens, UniProt O95785+Q96SW2).
T1 construct: expressed in transfected cells
Description: Quantification of WIZ protein levels in HiBit tag fusion protein assay (WIZ HiBit assay in 293T cells). Format: cell-based. Also on record: remaining activity / Dmax: dose or concentration left out as unconfirmed. The note with it: for Dmax at 25 µM: 100 − Amax; for Dmax at 25 µM / remaining activity at 25 µM: 293T cells; for remaining activity at 25 µM: DMSO-normalized, curve-fitted percentage of WIZ-HiBit remaining at 25 uM; for DC50: WIZ HiBit assay in 293T cells, 10-point, 5-fold dose response, highest concentration 25 μM, about 18 hours, read-out: WIZ AC50. Put shortly: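 HiBit-tagged WIZ (N-terminal tag, HSVTK promoter) stably expressed single-copy in 293T cells; 10-point 1:5 compound series, top 25 μM, ~18 h at 37 °C. Lytic HiBit/LgBit luminescence read; Amax = curve-fitted % WIZ-HiBit remaining at 25 μM, DMSO normalized to 100%.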

Where [1] appears, read: HEK-293T, read-out: % degradation of WIZ (100 − Amax).

T1 sequence (O95785 whole entry, the tested form may be a part): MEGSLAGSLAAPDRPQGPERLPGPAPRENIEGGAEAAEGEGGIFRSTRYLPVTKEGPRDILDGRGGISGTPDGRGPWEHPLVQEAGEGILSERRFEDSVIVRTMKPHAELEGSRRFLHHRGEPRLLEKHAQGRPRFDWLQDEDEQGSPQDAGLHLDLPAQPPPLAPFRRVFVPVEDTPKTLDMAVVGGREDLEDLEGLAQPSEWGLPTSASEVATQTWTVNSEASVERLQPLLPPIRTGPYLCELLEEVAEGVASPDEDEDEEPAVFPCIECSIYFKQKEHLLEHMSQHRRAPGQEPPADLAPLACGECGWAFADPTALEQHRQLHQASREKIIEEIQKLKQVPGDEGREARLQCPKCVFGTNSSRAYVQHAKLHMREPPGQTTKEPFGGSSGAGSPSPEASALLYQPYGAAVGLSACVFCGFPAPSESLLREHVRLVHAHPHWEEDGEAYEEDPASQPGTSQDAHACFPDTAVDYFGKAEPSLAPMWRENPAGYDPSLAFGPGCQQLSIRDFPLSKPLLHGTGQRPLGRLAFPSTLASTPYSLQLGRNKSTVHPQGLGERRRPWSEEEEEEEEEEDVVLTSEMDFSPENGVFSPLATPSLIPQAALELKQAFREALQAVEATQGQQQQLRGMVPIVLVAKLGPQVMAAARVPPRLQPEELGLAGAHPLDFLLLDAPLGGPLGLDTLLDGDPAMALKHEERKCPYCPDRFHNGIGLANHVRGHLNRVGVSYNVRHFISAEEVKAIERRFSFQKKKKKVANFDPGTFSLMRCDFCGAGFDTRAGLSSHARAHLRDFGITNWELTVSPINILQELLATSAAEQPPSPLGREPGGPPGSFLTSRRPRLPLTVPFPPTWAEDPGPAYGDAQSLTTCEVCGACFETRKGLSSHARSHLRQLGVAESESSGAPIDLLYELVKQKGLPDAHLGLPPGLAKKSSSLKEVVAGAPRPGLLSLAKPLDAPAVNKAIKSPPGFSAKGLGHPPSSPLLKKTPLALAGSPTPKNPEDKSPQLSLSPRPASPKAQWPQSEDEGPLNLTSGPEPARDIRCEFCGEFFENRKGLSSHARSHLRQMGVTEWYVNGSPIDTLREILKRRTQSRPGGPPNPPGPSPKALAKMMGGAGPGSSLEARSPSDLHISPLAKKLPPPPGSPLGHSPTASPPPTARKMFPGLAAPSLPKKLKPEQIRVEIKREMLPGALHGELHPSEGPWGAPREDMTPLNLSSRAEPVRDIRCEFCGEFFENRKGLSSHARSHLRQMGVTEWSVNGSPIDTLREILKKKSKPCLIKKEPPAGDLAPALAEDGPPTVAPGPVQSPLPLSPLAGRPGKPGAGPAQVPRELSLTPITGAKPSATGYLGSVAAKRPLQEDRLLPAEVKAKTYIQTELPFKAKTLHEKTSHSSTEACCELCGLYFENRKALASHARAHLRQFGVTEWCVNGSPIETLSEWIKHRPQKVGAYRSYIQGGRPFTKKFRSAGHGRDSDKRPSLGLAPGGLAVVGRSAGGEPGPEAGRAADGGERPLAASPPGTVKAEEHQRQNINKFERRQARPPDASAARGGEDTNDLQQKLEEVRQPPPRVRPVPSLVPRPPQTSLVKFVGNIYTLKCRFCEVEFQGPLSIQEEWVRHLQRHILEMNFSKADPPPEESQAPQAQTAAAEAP
T1 sequence (Q96SW2 whole entry, the tested form may be a part): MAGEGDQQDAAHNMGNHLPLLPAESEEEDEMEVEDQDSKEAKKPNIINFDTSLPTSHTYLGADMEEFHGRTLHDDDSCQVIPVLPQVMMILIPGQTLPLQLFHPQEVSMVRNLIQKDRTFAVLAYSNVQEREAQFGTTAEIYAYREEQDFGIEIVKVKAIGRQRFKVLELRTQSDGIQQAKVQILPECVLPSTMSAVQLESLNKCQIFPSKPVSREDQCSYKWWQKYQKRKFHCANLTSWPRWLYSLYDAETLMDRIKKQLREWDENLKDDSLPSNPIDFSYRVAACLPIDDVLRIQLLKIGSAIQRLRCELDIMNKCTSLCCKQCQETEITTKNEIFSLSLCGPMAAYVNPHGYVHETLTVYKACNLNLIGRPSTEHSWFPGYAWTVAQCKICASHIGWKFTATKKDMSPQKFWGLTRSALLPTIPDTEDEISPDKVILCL
T1 sequence (Q16531 whole entry partner, the tested form may be a part): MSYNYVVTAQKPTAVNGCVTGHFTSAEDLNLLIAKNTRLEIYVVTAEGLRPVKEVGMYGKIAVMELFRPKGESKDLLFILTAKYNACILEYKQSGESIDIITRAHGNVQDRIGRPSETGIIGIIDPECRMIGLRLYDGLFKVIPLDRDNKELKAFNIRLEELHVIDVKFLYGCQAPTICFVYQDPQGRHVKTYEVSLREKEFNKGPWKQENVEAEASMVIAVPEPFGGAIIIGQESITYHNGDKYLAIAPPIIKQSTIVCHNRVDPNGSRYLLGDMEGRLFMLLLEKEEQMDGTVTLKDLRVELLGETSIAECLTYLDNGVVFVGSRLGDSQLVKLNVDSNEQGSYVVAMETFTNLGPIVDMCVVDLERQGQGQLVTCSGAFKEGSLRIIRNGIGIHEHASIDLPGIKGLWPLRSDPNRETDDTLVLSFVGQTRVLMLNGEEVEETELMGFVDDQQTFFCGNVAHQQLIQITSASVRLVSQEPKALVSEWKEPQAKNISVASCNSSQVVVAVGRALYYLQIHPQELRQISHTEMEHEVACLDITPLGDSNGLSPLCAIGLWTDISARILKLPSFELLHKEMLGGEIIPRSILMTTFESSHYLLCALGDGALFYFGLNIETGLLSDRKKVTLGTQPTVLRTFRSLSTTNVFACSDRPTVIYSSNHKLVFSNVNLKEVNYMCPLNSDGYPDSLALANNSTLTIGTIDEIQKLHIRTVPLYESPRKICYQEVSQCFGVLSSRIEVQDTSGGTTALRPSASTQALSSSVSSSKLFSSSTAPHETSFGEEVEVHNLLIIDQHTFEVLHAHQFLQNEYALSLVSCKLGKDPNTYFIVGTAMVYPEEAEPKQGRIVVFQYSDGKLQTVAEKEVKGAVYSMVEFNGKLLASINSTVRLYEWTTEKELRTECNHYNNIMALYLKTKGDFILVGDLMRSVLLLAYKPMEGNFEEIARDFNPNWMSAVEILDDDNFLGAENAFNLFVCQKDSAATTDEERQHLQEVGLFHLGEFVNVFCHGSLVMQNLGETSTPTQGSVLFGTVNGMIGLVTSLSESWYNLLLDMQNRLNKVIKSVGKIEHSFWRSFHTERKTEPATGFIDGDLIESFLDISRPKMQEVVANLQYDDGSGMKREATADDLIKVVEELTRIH

For the compound `O=C1CCN(c2cnn3ccc(CC4CCN(Cc5ccc(C(F)(F)F)nc5)CC4)cc23)C(=O)N1` [Example 54, 1-(5-((1-((6-(trifluoromethyl)pyridin-3-yl)methyl)piperidin-4-yl)methyl)pyrazolo[1,5-a]pyridin-3-yl)dihydropyrimidine-2,4(1H,3H)-dione], the DC50 came to 44 nM. Further, under setting [1], the Dmax at 25 µM was 64%. Also, under “HEK-293T, read-out: WIZ Amax”, the remaining activity at 25 µM was determined as 36%.
The corresponding values for `O=C1CCN(c2cnn3ccc(CC4CCN(CC5(C(F)(F)F)CC5)CC4)cc23)C(=O)N1` [Example 55, 1-(5-((1-((1-(trifluoromethyl)cyclopropyl)methyl)piperidin-4-yl)methyl)pyrazolo[1,5-a]pyridin-3-yl)dihydropyrimidine-2,4(1H,3H)-dione] are 103 nM, 64% and 36%.
For `O=C1CCN(c2cnn3ccc(CC4CCN(Cc5ccc(OC(F)(F)F)cc5)CC4)cc23)C(=O)N1` [Example 56, 1-(5-((1-(4-(trifluoromethoxy)benzyl)piperidin-4-yl)methyl)pyrazolo[1,5-a]pyridin-3-yl)dihydropyrimidine-2,4(1H,3H)-dione] the same measures were 204 nM, 63% and 37%.
For `O=C1CCN(c2cnn3ccc(CC4CCN(Cc5ccc(C(F)(F)F)cc5)CC4)cc23)C(=O)N1` [Example 57, 1-(5-((1-(4-(trifluoromethyl)benzyl)piperidin-4-yl)methyl)pyrazolo[1,5-a]pyridin-3-yl)dihydropyrimidine-2,4(1H,3H)-dione] the same measures were 107 nM, 63% and 37%.
In the case of `Cc1ccc(F)cc1CN1CCC(Cc2ccn3ncc(N4CCC(=O)NC4=O)c3c2)CC1` [Example 58, 1-(5-((1-(5-fluoro-2-methylbenzyl)piperidin-4-yl)methyl)pyrazolo[1,5-a]pyridin-3-yl)dihydropyrimidine-2,4(1H,3H)-dione], the DC50 was found to be 33 nM. Further, under setting [1], the Dmax at 25 µM is 63%. The remaining activity at 25 µM (HEK-293T, read-out: WIZ Amax) worked out at 37%.
For the compound `O=C1CCN(c2cnn3ccc(CC4CCN(Cc5ccccc5Cl)CC4)cc23)C(=O)N1` [Example 59, 1-(5-((1-(2-chlorobenzyl)piperidin-4-yl)methyl)pyrazolo[1,5-a]pyridin-3-yl)dihydropyrimidine-2,4(1H,3H)-dione], the DC50 came out at 98 nM. Further, under setting [1], the Dmax at 25 µM was 58%. For the same compound, the remaining activity at 25 µM (HEK-293T, read-out: WIZ Amax) is 42%.
In the case of `O=C1CCN(c2cnn3ccc(CC4CCN(Cc5nccs5)CC4)cc23)C(=O)N1` [Example 60, 1-(5-((1-(thiazol-2-ylmethyl)piperidin-4-yl)methyl)pyrazolo[1,5-a]pyridin-3-yl)dihydropyrimidine-2,4(1H,3H)-dione], the DC50 came out at 34 nM. Also, the Dmax at 25 µM under setting [1] is 61%. Further, where the note is “HEK-293T, read-out: WIZ Amax”, the remaining activity at 25 µM came out at 39%.
The corresponding values for `COc1ccc(CN2CCC(Cc3ccn4ncc(N5CCC(=O)NC5=O)c4c3)CC2)cc1` [Example 61, 1-(5-((1-(4-methoxybenzyl)piperidin-4-yl)methyl)pyrazolo[1,5-a]pyridin-3-yl)dihydropyrimidine-2,4(1H,3H)-dione] are 1740 nM, 62% and 38%.
On to `CC(C)(CN1CCC(Cc2ccn3ncc(N4CCC(=O)NC4=O)c3c2)CC1)C(F)(F)F` [Example 62, 1-(5-((1-(3,3,3-trifluoro-2,2-dimethylpropyl)piperidin-4-yl)methyl)pyrazolo[1,5-a]pyridin-3-yl)dihydropyrimidine-2,4(1H,3H)-dione], for which the DC50 turned out to be 49 nM. Moreover, under setting [1], the Dmax at 25 µM is 73%. For the same compound, the remaining activity at 25 µM (HEK-293T, read-out: WIZ Amax) was determined as 27%.
For `O=C1CCN(c2cnn3ccc(CC4CCN(CC5CCNCC5)CC4)cc23)C(=O)N1` [Example 63] the same measures were greater than 25000 nM, 36% and 64%.
Regarding `CO[C@H]1CC[C@H](CN2CCC(Cc3ccn4ncc(N5CCC(=O)NC5=O)c4c3)CC2)CC1` [Example 64, 1-(5-((1-(((1r,4r)-4-methoxycyclohexyl)methyl)piperidin-4-yl)methyl)pyrazolo[1,5-a]pyridin-3-yl)dihydropyrimidine-2,4(1H,3H)-dione], the DC50 was 43 nM. Also, the Dmax at 25 µM under setting [1] came out at 94%. Besides, the remaining activity at 25 µM (HEK-293T, read-out: WIZ Amax) amounted to 6%.
For the compound `CO[C@H]1CC[C@@H](CN2CCC(Cc3ccn4ncc(N5CCC(=O)NC5=O)c4c3)CC2)CC1` [Example 65, 1-(5-((1-(((1s,4s)-4-methoxycyclohexyl)methyl)piperidin-4-yl)methyl)pyrazolo[1,5-a]pyridin-3-yl)dihydropyrimidine-2,4(1H,3H)-dione], the DC50 came to 32 nM. In addition, the Dmax at 25 µM under setting [1] worked out at 94%. Besides, the remaining activity at 25 µM (HEK-293T, read-out: WIZ Amax) is 6%.
The corresponding values for `O=C1CCN(c2cnn3ccc(CC4C[C@H]5CC[C@@H](C4)N5CC4CCCCC4)cc23)C(=O)N1` (stereo partly drawn) [Example 66, 1-(5-(((1R,5S)-8-(cyclohexylmethyl)-8-azabicyclo[3.2.1]octan-3-yl)methyl)pyrazolo[1,5-a]pyridin-3-yl)dihydropyrimidine-2,4(1H,3H)-dione] are 195 nM, 72% and 28%.
For `CC(C)CN1[C@@H]2CC[C@H]1CC(Cc1ccn3ncc(N4CCC(=O)NC4=O)c3c1)C2` (stereo partly drawn) [Example 67, 1-(5-(((1R,5S)-8-isobutyl-8-azabicyclo[3.2.1]octan-3-yl)methyl)pyrazolo[1,5-a]pyridin-3-yl)dihydropyrimidine-2,4(1H,3H)-dione] the same measures were 561 nM, 61% and 39%.
As to `O=C1CCN(c2cnn3ccc(CC4C[C@H]5CC[C@@H](C4)N5Cc4cccnc4)cc23)C(=O)N1` (stereo partly drawn) [Example 68, 1-(5-(((1R,5S)-8-(pyridin-3-ylmethyl)-8-azabicyclo[3.2.1]octan-3-yl)methyl)pyrazolo[1,5-a]pyridin-3-yl)dihydropyrimidine-2,4(1H,3H)-dione], the DC50 is 384 nM. Also, under setting [1], the Dmax at 25 µM stood at 57%. Moreover, the remaining activity at 25 µM (HEK-293T, read-out: WIZ Amax) turned out to be 43%.
On to `COc1ccnc(N2CCC(Cc3ccn4ncc(N5CCC(=O)NC5=O)c4c3)CC2)n1` [Example 69, 1-(5-((1-(4-methoxypyrimidin-2-yl)piperidin-4-yl)methyl)pyrazolo[1,5-a]pyridin-3-yl)dihydropyrimidine-2,4(1H,3H)-dione], for which the DC50 amounted to 350 nM. Besides, under setting [1], the Dmax was found to be 35%. Further, the remaining activity (HEK-293T, read-out: WIZ Amax) is 65%.
Consider `CC(C)C(C)N1CCC(Cc2ccn3ncc(N4CCC(=O)NC4=O)c3c2)CC1` (stereo not drawn) [Example 70, 1-(5-((1-(3-methylbutan-2-yl)piperidin-4-yl)methyl)pyrazolo[1,5-a]pyridin-3-yl)dihydropyrimidine-2,4(1H,3H)-dione], for which the DC50 stood at 21 nM. Under setting [1], the Dmax at 25 µM is 83%. Besides, the remaining activity at 25 µM (HEK-293T, read-out: WIZ Amax) is 17%.
The corresponding values for `CC(C)CN1CC[C@H](Cc2ccn3ncc(N4CCC(=O)NC4=O)c3c2)C[C@@H]1C` [Example 72] are 6 nM, 87% and 13%.
The corresponding values for `C[C@H]1C[C@@H](Cc2ccn3ncc(N4CCC(=O)NC4=O)c3c2)CCN1CC1CCOCC1` [Example 73] are 3 nM, 89% and 11%.
